Test results published in patent US7161032B2, “Sulfonamide derivatives, insecticides for agricultural and horticultural use, and usage thereof” (Nihon Nohyaku Co., Ltd., priority 2002, dated 2007).

Experiments:
Assay type in all cases: in vivo
[1] = system: Diamond Back Moth (Plutella xylostella); assay: Insecticidal effect on diamond back moth (Test Example 1): egg-bearing Chinese cabbage seedling immersed in 50 ppm liquid chemical
Description: Adult diamond back moths were released and allowed to oviposit on a Chinese cabbage seedling. Two days after the release, the seedling having the eggs deposited thereon was immersed for about 30 seconds in a liquid chemical prepared by diluting a preparation containing each compound listed in Table 1 or 2 as an active ingredient to adjust the concentration to 50 ppm. After air-dryness, it was allowed to stand in a room thermostated at 25° C. Six days after the immersion, the hatched insects were counted. The mortality was calculated according to the following equation and the insecticidal effect was judged according to the criterion shown below. The test was carried out with triplicate groups of 10 insects. [formula]

[2] = system: Common Cutworm (Spodoptera litura); assay: Insecticidal effect on common cutworm (Test Example 2): cabbage leaf piece immersed in 50 ppm liquid chemical; settings: common cutworm (Spodoptera litura) second-instar larvae, 8 days after inoculation, 25° C.
Description: A piece of cabbage leaf (cultivar: Shikidori) was immersed for about 30 seconds in a liquid chemical prepared by diluting a preparation containing each compound listed in Table 1 or 2 as an active ingredient to adjust the concentration to 50 ppm. After air-dryness, it was placed in a plastic Petri dish with a diameter of 9 cm and inoculated with second-instar larvae of common cutworm, after which the dish was closed and then allowed to stand in a room thermostated at 25° C. Eight days after the inoculation, the dead and alive were counted. The mortality was calculated according to the following equation and the insecticidal effect was judged according to the criterion shown in Test Example 1. The test was carried out with triplicate groups of 10 insects. [formula]

[3] = system: Smaller Tea Tortrix (Adoxophyes sp.); assay: Insecticidal effect on smaller tea tortrix (Test Example 3): tea leaves immersed in 50 ppm liquid chemical; settings: smaller tea tortrix (Adoxophyes sp.) larvae, 8 days after inoculation, 25° C., humidity 70%
Description: Tea leaves were immersed for about 30 seconds in a liquid chemical prepared by diluting a preparation containing each compound listed in Table 1 or 2 as an active ingredient to adjust the concentration to 50 ppm. After air-dryness, the tea leaves were placed in a plastic Petri dish with a diameter of 9 cm and inoculated with larvae of smaller tea tortrix, after which the dish was allowed to stand in a room thermostated at 25° C. and having a humidity of 70%. Eight days after the inoculation, the dead and alive were counted and the insecticidal effect was judged according to the criterion shown in Test Example 1. The test was carried out with triplicate groups of 10 insects.

| Structure (SMILES) | Insecticidal effect (mortality grade), Test Example 1 [1] | Insecticidal effect (mortality grade), Test Example 2 [2] | Insecticidal effect (mortality grade), Test Example 3 [3] |
| --- | --- | --- | --- |
| Cc1cc(C(F)(C(F)(F)F)C(F)(F)F)ccc1NC(=O)c1cccc(I)c1C(=O)NC(C)(C)CS(=O)(=O)NCCSc1ccccc1 [1-87] | A (Mortality 100%) | A (Mortality 100%) | A (Mortality 100%) |
| Cc1cc(C(F)(C(F)(F)F)C(F)(F)F)ccc1NC(=O)c1cccc(I)c1C(=O)NC(C)(C)CS(=O)(=O)NCCS(=O)(=O)c1ccccc1 [1-89] | A (Mortality 100%) | A (Mortality 100%) | A (Mortality 100%) |
| CONS(=O)(=O)CC(C)NC(=O)c1c(I)cccc1C(=O)Nc1ccc(C(F)(C(F)(F)F)C(F)(F)F)cc1C (stereo not drawn) [1-116] | A (Mortality 100%) | D (Mortality 79–50%) | A (Mortality 100%) |
| Cc1cc(C(C(F)(F)F)C(F)(F)F)ccc1NC(=O)c1cccc(I)c1C(=O)NC(C)CS(N)(=O)=O (stereo not drawn) [1-342] | A (Mortality 100%) | A (Mortality 100%) | A (Mortality 100%) |
| Cc1cc(C(F)(C(F)(F)F)C(F)(F)F)ccc1NC(=O)c1cccc(I)c1C(=O)NC(C)CS(=O)(=O)N1CCS(=O)(=O)CC1 (stereo not drawn) [1-57] | A (Mortality 100%) | A (Mortality 100%) | A (Mortality 100%) |
| Cc1cc(C(C(F)(F)F)C(F)(F)F)ccc1NC(=O)c1cccc(I)c1C(=O)NC(C)(C)CS(=O)(=O)N1CCCC1 [1-345] | A (Mortality 100%) | A (Mortality 100%) | A (Mortality 100%) |
| Cc1cc(C(F)(C(F)(F)F)C(F)(F)F)ccc1NC(=O)c1cccc(I)c1C(=O)NC(C)CS(=O)(=O)NCc1ccccc1[N+](=O)[O-] (stereo not drawn) [1-28] | A (Mortality 100%) | A (Mortality 100%) | A (Mortality 100%) |
| CC[S+]([O-])CCNS(=O)(=O)CC(C)(C)NC(=O)c1c(I)cccc1C(=O)Nc1ccc(C(F)(F)C(F)(F)F)cc1C (stereo not drawn) [1-308] | A (Mortality 100%) | A (Mortality 100%) | A (Mortality 100%) |
| Cc1cc(C(F)(C(F)(F)F)C(F)(F)F)ccc1NC(=O)c1cccc(I)c1C(=O)NC(C)CS(=O)(=O)NCCO (stereo not drawn) [1-72] | A (Mortality 100%) | A (Mortality 100%) | A (Mortality 100%) |
| Cc1cc(C(F)(C(F)(F)F)C(F)(F)F)ccc1NC(=O)c1cccc(I)c1C(=O)NC(C)CS(=O)(=O)N[C@@H](C)c1ccccc1 (stereo partly drawn) [1-46] | A (Mortality 100%) | A (Mortality 100%) | A (Mortality 100%) |
| CCCCNS(=O)(=O)CC(C)(C)NC(=O)c1c(I)cccc1C(=O)Nc1ccc(C(F)(C(F)(F)F)C(F)(F)F)cc1C [1-180] | A (Mortality 100%) | C (Mortality 89–80%) | A (Mortality 100%) |
| Cc1cc(C(F)(C(F)(F)F)C(F)(F)F)ccc1NC(=O)c1cccc(I)c1C(=O)NC(C)(C)CS(=O)(=O)N1CCCC1 [1-181] | A (Mortality 100%) | A (Mortality 100%) | A (Mortality 100%) |
| CCNS(=O)(=O)CC(C)NC(=O)c1c(I)cccc1C(=O)Nc1ccc(Cl)c(Cl)c1Cl (stereo not drawn) [1-266] | A (Mortality 100%) | C (Mortality 89–80%) | E (Mortality less than 50%) |
| Cc1cc(C(F)(C(F)(F)F)C(F)(F)F)ccc1NC(=O)c1cccc(I)c1C(=O)NC(C)CS(=O)(=O)Nc1ccccc1 (stereo not drawn) [1-106] | A (Mortality 100%) | E (Mortality less than 50%) | E (Mortality less than 50%) |
| CCN(CC)S(=O)(=O)CC(C)NC(=O)c1c(I)cccc1C(=O)Nc1ccc(OC(F)(F)F)cc1C (stereo not drawn) [1-276] | A (Mortality 100%) | E (Mortality less than 50%) | E (Mortality less than 50%) |
| Cc1cc(C(F)(C(F)(F)F)C(F)(F)F)ccc1NC(=O)c1cccc(I)c1C(=O)NC(C)(C)CS(N)(=O)=O [1-175, 3-iodo-N^1-{2-methyl-4-[1,2,2,2-tetrafluoro-1-(trifluoromethyl)ethyl]phenyl}-N^2-(2-sulfamoyl-1,1-dimethylethyl)phthalamide] | A (Mortality 100%) | A (Mortality 100%) | A (Mortality 100%) |
| Cc1cc(C(F)(C(F)(F)F)C(F)(F)F)ccc1NC(=O)c1cccc(I)c1C(=O)NC(C)CS(=O)(=O)N1CCOCC1 (stereo not drawn) [1-54] | A (Mortality 100%) | A (Mortality 100%) | A (Mortality 100%) |
| Cc1cc(C(F)(C(F)(F)F)C(F)(F)F)ccc1NC(=O)c1cccc(I)c1C(=O)NC(C)(C)CS(=O)(=O)NCC[S+]([O-])c1ccccc1 (stereo not drawn) [1-88] | A (Mortality 100%) | A (Mortality 100%) | A (Mortality 100%) |
| Cc1cc(C(F)(C(F)(F)F)C(F)(F)F)ccc1NC(=O)c1cccc(I)c1C(=O)NC(C)CS(=O)(=O)N1CCC(=O)CC1 (stereo not drawn) [1-67] | A (Mortality 100%) | E (Mortality less than 50%) | E (Mortality less than 50%) |
| Cc1cc(C(F)(C(F)(F)F)C(F)(F)F)ccc1NC(=O)c1cccc(Br)c1C(=O)NC(C)CS(=O)(=O)NCc1ccccc1 (stereo not drawn) [1-218] | A (Mortality 100%) | A (Mortality 100%) | A (Mortality 100%) |
| Cc1cc(C(F)(C(F)(F)F)C(F)(F)F)ccc1NC(=O)c1cccc(I)c1C(=O)NC(C)CS(=O)(=O)NC(C)(C)Cc1ccccc1 (stereo not drawn) [1-48] | A (Mortality 100%) | C (Mortality 89–80%) | A (Mortality 100%) |
| Cc1cc(C(F)(C(F)(F)F)C(F)(F)F)ccc1NC(=O)c1cccc(I)c1C(=O)NC(C)CS(=O)(=O)NC(C)C[S+](C)[O-] (stereo not drawn) [1-92] | A (Mortality 100%) | A (Mortality 100%) | A (Mortality 100%) |
| C#CCNS(=O)(=O)CC(C)NC(=O)c1c(I)cccc1C(=O)Nc1ccc(C(F)(C(F)(F)F)C(F)(F)F)cc1C (stereo not drawn) [1-21] | A (Mortality 100%) | A (Mortality 100%) | A (Mortality 100%) |
| Cc1cc(C(F)(C(F)(F)F)C(F)(F)F)ccc1NC(=O)c1cccc(I)c1C(=O)NC(C)CS(=O)(=O)NCc1ccc([N+](=O)[O-])cc1 (stereo not drawn) [1-36] | A (Mortality 100%) | A (Mortality 100%) | A (Mortality 100%) |
| CCN(CC)S(=O)(=O)CC(C)(C)NC(=O)c1c(I)cccc1C(=O)Nc1ccc(Cl)c(Cl)c1Cl [1-268] | A (Mortality 100%) | A (Mortality 100%) | A (Mortality 100%) |
| Cc1cc(C(F)(C(F)(F)F)C(F)(F)F)ccc1NC(=O)c1cccc(I)c1C(=O)NC(C)(C)CS(=O)(=O)N1CCS(=O)(=O)CC1 [1-60] | A (Mortality 100%) | A (Mortality 100%) | E (Mortality less than 50%) |
| CCN(CC)S(=O)(=O)CC(C)NC(=O)c1c(I)cccc1C(=O)Nc1ccc(C(F)(C(F)(F)F)C(F)(F)F)cc1C (stereo not drawn) [1-144] | A (Mortality 100%) | A (Mortality 100%) | A (Mortality 100%) |
